{"source": "patent US20130131002A1", "about": "“COMPOSITIONS AND METHODS FOR TREATING PULMONARY HYPERTENSION” (Georgetown University, priority 2010, published 2013)", "assay_type_in_all_cases": "in vivo, Sprague Dawley rats", "key": {"[1]": {"system": "pulmonary artery smooth muscle cells", "assay": "Apoptosis of pulmonary vascular cells by TUNEL method in lungs of treated rats", "conditions": "daunorubicin 20 mg/kg i.p.", "from_the_text": "All animal studies were approved by the Georgetown University Animal Care and Use Committee. Adult Sprague Dawley rats (200-250 g) were placed in specialized cages connected to the OxyCycler Oxygen Profile Controller (BioSpherix, Redfield, N.Y.) which precisely controls the oxygen and nitrogen contents. Animals were subjected to hypoxic gas (10% O2, balance N2). […] Normoxia control animals are subjected to the same conditions except that they were exposed to ambient O2. All animals were fed normal rat chow during treatment and used in accordance with institutional guidelines. […]\n(§1) As an indication of the development of pulmonary hypertension, right ventricular hypertrophy was estimated by calculating RV/(LV+S), where RV is the mass of right ventricle, LV is the mass of left ventricle and S is the mass of septum. Right ventricular pressure was measured by inserting a 1.4 F Millar Catheter into the right ventricle at the base of apex using PowerLab 8/30 High Performance Data Acquisition System with Chart Pro in anesthetized and ventilated animals. Pulmonary arterial wall thickening was assessed histologically in hematoxylin and eosin stained lungs. Apoptosis of pulmonary vascular cells was monitored using terminal deoxynucleotidyl transferase dUTP nick end labeling (TUNEL) method."}, "[2]": {"system": "rats with hypoxia-induced pulmonary hypertension", "assay": "Pulmonary arterial wall thickening assessed histologically (H&E stained lungs) in chronic hypoxia rats", "conditions": "vs saline", "from_the_text": "(§2) All animal studies were approved by the Georgetown University Animal Care and Use Committee. Adult Sprague Dawley rats (200-250 g) were placed in specialized cages connected to the OxyCycler Oxygen Profile Controller (BioSpherix, Redfield, N.Y.) which precisely controls the oxygen and nitrogen contents. Animals were subjected to hypoxic gas (10% O2, balance N2). […] Normoxia control animals are subjected to the same conditions except that they were exposed to ambient O2. All animals were fed normal rat chow during treatment and used in accordance with institutional guidelines.\n(§3) After 2-weeks of hypoxia or normoxia treatment, animals were injected intraperitoneally with saline or daunorubicin (20 mg/kg body weight; Sigma-Aldrich, St. Louise, Mo.). After injection, animals were placed back in hypoxia or normoxia condition for 3 days.\nas §1\n(§4) Comparisons between the 2 groups were analyzed using a two-tailed Student's t test, and comparisons between 3 or more groups were analyzed by ANOVA with a Student-Newman-Keuls post-hoc test. p<0.05 was considered to be significant. […]\n(§5) Comparisons between the 2 groups (2 mg/kg vs. control, or 5 mg/kg vs. control) were analyzed using a two-tailed Student's t test, and comparisons between 3 or more groups were analyzed by ANOVA with a Student-Newman-Keuls post-hoc test. p<0.05 was considered to be significant."}, "[3]": {"assay": "Overall body weight of treated animals", "conditions": "lower doses of daunorubicin (2 mg/kg and 5 mg/kg i.p.)"}, "[4]": {"system": "normal animals without pulmonary hypertension", "assay": "Pulmonary vascular wall thickness (H&E stained lungs) in normoxia control rats", "from_the_text": "as §2, §3, §1, §4, §5"}}, "note": "Entries after “also recorded” stand apart in the source; their conditions may differ."}
{"compound": "COc1cccc2c1C(=O)c1c(O)c3c(c(O)c1C2=O)C[C@@](O)(C(C)=O)C[C@@H]3O[C@H]1C[C@H](N)[C@H](O)[C@H](C)O1", "note": "[daunorubicin]", "values": [{"measurement": "TUNEL-positive (apoptotic) cells in pulmonary vascular walls", "setting": "[1]; hypoxia-exposed rats, saline controls showed none", "result": "induction of apoptosis in pulmonary vascular walls; also recorded: presented TUNEL-positive cells"}, {"measurement": "selectivity of apoptosis induction: thickened vs normal pulmonary vessels", "setting": "[1]; hypoxia rats (FIG. 3A) vs normoxia rats (FIG. 3B)", "result": "can selectively kill pulmonary artery smooth muscle cells involved in thickened vascular walls"}, {"measurement": "hypoxia-induced pulmonary vascular wall thickening", "setting": "[2]; daunorubicin 2 mg/kg i.p. after 2 weeks hypoxia", "result": "significantly reducing hypoxia-induced wall thickening; also recorded: significantly reduced hypoxia-induced wall thickening"}, {"measurement": "hypoxia-induced pulmonary vascular wall thickening", "setting": "[2]; daunorubicin 5 mg/kg i.p. after 2 weeks hypoxia", "result": "significantly reducing hypoxia-induced wall thickening; also recorded: significantly reduced hypoxia-induced wall thickening"}, {"measurement": "hypoxia-induced pulmonary vascular wall thickening", "setting": "[2]; daunorubicin 20 mg/kg i.p. after 2 weeks 10% O2 hypoxia, then 3 more days hypoxia, P<0.05", "result": "reduced thickening of pulmonary vascular walls; also recorded: significantly reduced this hypoxia-induced wall thickening"}, {"measurement": "overall body weight of the animals", "setting": "[3]", "result": "not significantly affecting the overall body weight; also recorded: do not significantly impact the overall body weight"}, {"measurement": "thickness of the vascular walls in normal animals", "setting": "[4]; daunorubicin 2 mg/kg i.p.", "result": "did not affect the thickness of the vascular walls"}, {"measurement": "thickness of the vascular walls in normal animals", "setting": "[4]; daunorubicin 5 mg/kg i.p.", "result": "did not affect the thickness of the vascular walls"}, {"measurement": "thickness of the vascular walls in normal animals", "setting": "[4]; daunorubicin 20 mg/kg i.p.", "result": "did not affect the thickness of the vascular walls"}]}
